This is an account of results in patent US8912189B2, “Pyridopyrazine derivatives and their use” (Aeterna Zentaris GmbH, priority 2011, dated 2014).

The melting point is the temperature of the solid-liquid transition.

Compound `CCNC(=O)Nc1ccc2ncc(-c3cnn(Cc4cc(OC)c(OC)c(OC)c4)c3)nc2n1` [Compound 1, 1-Ethyl-3-{3-[1-(3,4,5-trimethoxy-benzyl)-1H-pyrazol-4-yl]-pyrido[2,3-b]pyrazin-6-yl}-urea] registered a melting point of 219 °C.
Next, `CCNC(=O)Nc1ccc2ncc(-c3cnn(Cc4cccc(OC(F)F)c4)c3)nc2n1` [Compound 3, 1-{3-[1-(3-Difluoromethoxy-benzyl)-1H-pyrazol-4-yl]-pyrido[2,3-b]pyrazin-6-yl}-3-ethyl-urea]: 198 °C; `CCNC(=O)Nc1ccc2ncc(-c3cnn(Cc4cccc(O)c4)c3)nc2n1` [Compound 4, 1-Ethyl-3-{3-[1-(3-hydroxy-benzyl)-1H-pyrazol-4-yl]-pyrido[2,3-b]pyrazin-6-yl}-urea]: 242 °C.
Next, `CCNC(=S)Nc1ccc2ncc(-c3cnn(Cc4ccc5c(c4)OCO5)c3)nc2n1` [Compound 5, 1-[3-(1-Benzo[1,3]dioxol-5-ylmethyl-1H-pyrazol-4-yl)-pyrido[2,3-b]pyrazin-6-yl]-3-ethyl-thiourea]: 244 °C.
Turning to `CCNC(=O)Nc1ccc2ncc(-c3cnn(Cc4ccc(OC(F)(F)F)cc4)c3)nc2n1` [Compound 6, 1-Ethyl-3-{3-[1-(4-trifluoromethoxy-benzyl)-1H-pyrazol-4-yl]-pyrido[2,3-b]pyrazin-6-yl}-urea], the melting point was 231 °C.
The compound `COCCNC(=S)Nc1ccc2ncc(-c3cnn(Cc4ccc(OC)c(OC)c4)c3)nc2n1` [Compound 7, 1-{3-[1-(3,4-Dimethoxy-benzyl)-1H-pyrazol-4-yl]-pyrido[2,3-b]pyrazin-6-yl}-3-(2-methoxy-ethyl)-thiourea] yielded a melting point of 198 °C.
In the case of `CCNC(=O)Nc1ccc2ncc(-c3cnn(Cc4ccc(F)c(Cl)c4)c3)nc2n1` [Compound 8, 1-{3-[1-(3-Chloro-4-fluoro-benzyl)-1H-pyrazol-4-yl]-pyrido[2,3-b]pyrazin-6-yl}-3-ethyl-urea] it was 214 to 219 °C.
In the case of `CCNC(=O)Nc1ccc2ncc(-c3cnn(CCCc4ccccc4)c3)nc2n1` [Compound 9, 1-Ethyl-3-{3-[1-(3-phenyl-propyl)-1H-pyrazol-4-yl]-pyrido[2,3-b]pyrazin-6-yl}-urea] it was 251 °C; in that of `CCNC(=O)Nc1ccc2ncc(-c3cnn(Cc4ccc(C#N)cc4)c3)nc2n1` [Compound 10, 1-{3-[1-(4-Cyano-benzyl)-1H-pyrazol-4-yl]-pyrido[2,3-b]pyrazin-6-yl}-3-ethyl-urea], 208 to 215 °C; in that of `CCNC(=O)Nc1ccc2ncc(-c3cnn(Cc4ccc(OC(F)F)cc4)c3)nc2n1` [Compound 11, 1-{3-[1-(4-Difluoromethoxy-benzyl)-1H-pyrazol-4-yl]-pyrido[2,3-b]pyrazin-6-yl}-3-ethyl-urea], 239 °C.
In the case of `CCNC(=O)Nc1ccc2ncc(-c3cnn(Cc4cccc(C)c4)c3)nc2n1` [Compound 13, 1-Ethyl-3-{3-[1-(3-methyl-benzyl)-1H-pyrazol-4-yl]-pyrido[2,3-b]pyrazin-6-yl}-urea] it was 208 to 210 °C.
As for `CCNC(=O)Nc1ccc2ncc(-c3cnn(Cc4ccc(C)cc4)c3)nc2n1` [Compound 15, 1-Ethyl-3-{3-[1-(4-methyl-benzyl)-1H-pyrazol-4-yl]-pyrido[2,3-b]pyrazin-6-yl}-urea], the melting point was in the range of 217 to 220 °C.
In the case of `CCNC(=O)Nc1ccc2ncc(-c3cnn(CCCCc4ccccc4)c3)nc2n1` [Compound 16, 1-Ethyl-3-{3-[1-(4-phenyl-butyl)-1H-pyrazol-4-yl]-pyrido[2,3-b]pyrazin-6-yl}-urea] it was 182 °C.
With `CCNC(=O)Nc1ccc2ncc(-c3cnn(Cc4ccc(Cl)cc4)c3)nc2n1` [Compound 18, 1-{3-[1-(4-Chloro-benzyl)-1H-pyrazol-4-yl]-pyrido[2,3-b]pyrazin-6-yl}-3-ethyl-urea], the melting point was in the range of 240 to 244 °C.
Next, `CCNC(=S)Nc1ccc2ncc(-c3cnn(Cc4cc(OC)ccc4OC)c3)nc2n1` [Compound 19, 1-{3-[1-(2,5-Dimethoxy-benzyl)-1H-pyrazol-4-yl]-pyrido[2,3-b]pyrazin-6-yl}-3-ethyl-thiourea]: 225 °C; `CCNC(=S)Nc1ccc2ncc(-c3cnn(Cc4ccc(C)cc4)c3)nc2n1` [Compound 20, 1-Ethyl-3-{3-[1-(4-methyl-benzyl)-1H-pyrazol-4-yl]-pyrido[2,3-b]pyrazin-6-yl}-thiourea]: 241 °C.
Next, `CCNC(=S)Nc1ccc2ncc(-c3cnn(Cc4cccc(OCc5ccccc5)c4)c3)nc2n1` [Compound 21, 1-{3-[1-(3-Benzyloxy-benzyl)-1H-pyrazol-4-yl]-pyrido[2,3-b]pyrazin-6-yl}-3-ethyl-thiourea]: 203 to 205 °C.
Next, `CCNC(=O)Nc1ccc2ncc(-c3cnn(Cc4ccc(Br)c(C)c4)c3)nc2n1` [Compound 22, 1-{3-[1-(4-Bromo-3-methyl-benzyl)-1H-pyrazol-4-yl]-pyrido[2,3-b]pyrazin-6-yl}-3-ethyl-urea]: 250 to 252 °C.
`CCNC(=S)Nc1ccc2ncc(-c3cnn(Cc4ccc(OC)cc4)c3)nc2n1` [Compound 23, 1-Ethyl-3-{3-[1-(4-methoxy-benzyl)-1H-pyrazol-4-yl]-pyrido[2,3-b]pyrazin-6-yl}-thiourea] showed a melting point of 237 °C.
In the case of `CCNC(=S)Nc1ccc2ncc(-c3cnn(Cc4cccnc4)c3)nc2n1` [Compound 24, 1-Ethyl-3-[3-(1-pyridin-3-ylmethyl-1H-pyrazol-4-yl)-pyrido[2,3-b]pyrazin-6-yl]-thiourea] it was 238 °C; in that of `CCNC(=S)Nc1ccc2ncc(-c3cnn(Cc4cc(C)cc(F)c4)c3)nc2n1` [Compound 25, 1-Ethyl-3-{3-[1-(3-fluoro-5-methyl-benzyl)-1H-pyrazol-4-yl]-pyrido[2,3-b]pyrazin-6-yl}-thiourea], 257 to 259 °C.
Next, `CCNC(=S)Nc1ccc2ncc(-c3cnn(Cc4cccc(OC)c4OC)c3)nc2n1` [Compound 26, 1-{3-[1-(2,3-Dimethoxy-benzyl)-1H-pyrazol-4-yl]-pyrido[2,3-b]pyrazin-6-yl}-3-ethyl-thiourea]: 218 to 222 °C; `COCCNC(=S)Nc1ccc2ncc(-c3cnn(Cc4ccccc4)c3)nc2n1` [Compound 31, 1-[3-(1-Benzyl-1H-pyrazol-4-yl)-pyrido[2,3-b]pyrazin-6-yl]-3-(2-methoxy-ethyl)-thiourea]: 219 °C; `COCCNC(=S)Nc1ccc2ncc(-c3cnn(Cc4cccc(OC)c4)c3)nc2n1` [Compound 32, 1-{3-[1-(3-Methoxy-benzyl)-1H-pyrazol-4-yl]-pyrido[2,3-b]pyrazin-6-yl}-3-(2-methoxy-ethyl)-thiourea]: 215 °C.
`COCNC(=S)Nc1ccc2ncc(-c3cnn(Cc4cccc(OC)c4)c3)nc2n1` [Compound 33, 1-{3-[1-(3-Methoxy-benzyl)-1H-pyrazol-4-yl]-pyrido[2,3-b]pyrazin-6-yl}-3-methoxymethyl-thiourea]: the melting point turned out to be 187 °C.
In the case of `COCNC(=S)Nc1ccc2ncc(-c3cnn(Cc4ccc(OC)c(OC)c4)c3)nc2n1` [Compound 35, 1-{3-[1-(3,4-Dimethoxy-benzyl)-1H-pyrazol-4-yl]-pyrido[2,3-b]pyrazin-6-yl}-3-methoxymethyl-thiourea], the melting point was 188 °C.
Next, `CCNC(=S)Nc1ccc2ncc(-c3cnn(Cc4cccc(O)c4)c3)nc2n1` [Compound 36, 1-Ethyl-3-{3-[1-(3-hydroxy-benzyl)-1H-pyrazol-4-yl]-pyrido[2,3-b]pyrazin-6-yl}-thiourea]: 239 °C.
In the case of `CCNC(=S)Nc1ccc2ncc(-c3cnn(Cc4cccc(N(C)C)c4)c3)nc2n1` [Compound 37, 1-{3-[1-(3-Dimethylamino-benzyl)-1H-pyrazol-4-yl]-pyrido[2,3-b]pyrazin-6-yl}-3-ethyl-thiourea] it was 215 °C; in that of `CCNC(=S)Nc1ccc2ncc(-c3cnn(Cc4ccc(F)c(Cl)c4)c3)nc2n1` [Compound 38, 1-{3-[1-(3-Chloro-4-fluoro-benzyl)-1H-pyrazol-4-yl]-pyrido[2,3-b]pyrazin-6-yl}-3-ethyl-thiourea], 235 to 238 °C; in that of `CCNC(=S)Nc1ccc2ncc(-c3cnn(Cc4cc(OC)cc(OC)c4)c3)nc2n1` [Compound 39, 1-{3-[1-(3,5-Dimethoxy-benzyl)-1H-pyrazol-4-yl]-pyrido[2,3-b]pyrazin-6-yl}-3-ethyl-thiourea], 230 °C.
Next, `CCNC(=S)Nc1ccc2ncc(-c3cnn(Cc4ccc(OC)c(OC)c4OC)c3)nc2n1` [Compound 43, 1-Ethyl-3-{3-[1-(2,3,4-trimethoxy-benzyl)-1H-pyrazol-4-yl]-pyrido[2,3-b]pyrazin-6-yl}-thiourea]: 213 °C; `CCNC(=S)Nc1ccc2ncc(-c3cnn(CCCc4ccccc4)c3)nc2n1` [Compound 44, 1-Ethyl-3-{3-[1-(3-phenyl-propyl)-1H-pyrazol-4-yl]-pyrido[2,3-b]pyrazin-6-yl}-thiourea]: 206 to 208 °C; `CCNC(=S)Nc1ccc2ncc(-c3cnn(Cc4cc(OC)c(OC)c(OC)c4)c3)nc2n1` [Compound 46, 1-Ethyl-3-{3-[1-(3,4,5-trimethoxy-benzyl)-1H-pyrazol-4-yl]-pyrido[2,3-b]pyrazin-6-yl}-thiourea]: 232 °C.
The compound `COc1cccc(Cn2cc(-c3cnc4ccc(NC(=S)NCC(F)(F)F)nc4n3)cn2)c1` [Compound 47, 1-{3-[1-(3-Methoxy-benzyl)-1H-pyrazol-4-yl]-pyrido[2,3-b]pyrazin-6-yl}-3-(2,2,2-trifluoro-ethyl)-thiourea] came in with a melting point of 217 °C.
Next, `CCNC(=S)Nc1ccc2ncc(-c3cnn(Cc4cccc(C)c4F)c3)nc2n1` [Compound 48, 1-Ethyl-3-{3-[1-(2-fluoro-3-methyl-benzyl)-1H-pyrazol-4-yl]-pyrido[2,3-b]pyrazin-6-yl}-thiourea]: 242 to 245 °C; `CCNC(=S)Nc1ccc2ncc(-c3cnn(Cc4cccc(OCC)c4)c3)nc2n1` [Compound 49, 1-{3-[1-(3-Ethoxy-benzyl)-1H-pyrazol-4-yl]-pyrido[2,3-b]pyrazin-6-yl}-3-ethyl-thiourea]: 222 °C.
